Laboratory results reported in patent publication US4268630A, “Microbiological production of ketones from C3 -C6 alkanes” (priority 1979, dated 1981).

Assays:
[1] = test system: Methylobacter capsulatus Y (NRRL B-11,201); assay: Oxidation of sec-alcohols to ketones by resting cell suspension; format: cell-based
Experimental: (§1) The pH of the nutrient medium was adjusted to 7.0 by the addition of acid or base and 50 ml. samples of the nutrient medium were charged into a plurality of 300 ml. shaker flasks. The shaker flasks were inoculated with an inoculating loop of cells from an agar plate containing homogeneous colonies of the microorganisms on the plate (the purity of the isolates was confirmed by microscopic examination). The isolates had been maintained on methanol (0.4% V/V) agar plates or on agar plates under an atmosphere of methane and air having a 1:1 V/V gas ratio which had been transferred every two weeks. For growth on methanol, the medium was supplemented with 0.4% methanol. For growth on methane, the gaseous phase of the inoculated flasks was replaced with a gas mixture comprised on methane and air having a ratio of 1:1 on a V/V basis. The inoculated flasks were sealed air-tight and were incubated on a rotary shaker of orbital radius 2.5 cm. at 250 rpm and at 30° C. for two days until turbidity in the medium had developed. The cells were harvested by centrifugation at 10,000×g. at 4° C. for 30 minutes. The cell pellet was washed twice with a 0.05 M phosphate buffer at a pH of 7.0 (containing 0.02 M MgCl2). The washed cells were then suspended in a 0.05 M phosphate buffer at pH 7.0.
(§2) A 0.5 ml. sample of each washed cell suspension (2 mg. cells) was put into 10 ml. vials at 4° C. which were sealed with a rubber cap. The gaseous phase of the vials was removed with vacuum and then was replaced with a gas mixture of the substrate reactant (i.e., alkane or secondary alcohol) and oxygen at a 1:1 V/V ratio. (In the case of a liquid substrate, i.e., secondary alcohol, 10 μl of the substrate was put in the 10 ml. vials). […] Samples of product (1-3 μl) were withdrawn periodically with a microsyringe and the products were analyzed by gas chromatography (ionization flame detector column).
(§3) The procedure in Example 1 was repeated wherein a plurality of the methane-utilizing methylotrophic microorganisms were each grown aerobically in a nutrient medium containing methane as the alcohol dehydrogenase enzyme inducer and as the major carbon and energy source for growth. The cells were harvested and washed as described in Example 1. The resting microbial cells of the induced methane-grown methane-utilizing methylotrophic microorganisms were then contacted with C3 -C6 secondary alcohols in a buffered solution by the procedure of Example 1.
(§4) In this example, the procedure in Example 1 was repeated except that a plurality of methane-utilizing methylotrophic microorganisms were each aerobically grown in a methanol-containing nutrient medium instead of a methane-containing medium. The nutrients in the medium were the same as indicated in Example 1 except that 0.4% V/V methanol was used as the alcohol dehydrogenase inducer and major source of carbon and energy for growth. Following growth, the cells were harvested and washed as described in Example 1. The resting cells of the induced methanol-grown methylotrophic microorganisms were then contacted with secondary alcohols in a buffered solution by the procedure described in Example 1.

[2] = test system: Methylococcus capsulatus, Texas (ATCC 19069); assay: as above; format: cell-based
Experimental: as §1, §2, §3, §4

[3] = test system: Methylocystis parvus OBBP (NRRL B-11,198); assay: as above; format: cell-based
Experimental: as §1, §2, §3, §4

[4] = test system: Methylomonas methanica S1 (NRRL B-11,199); assay: as above; format: cell-based
Experimental: as §1, §2, §3, §4

[5] = test system: cell extracts of Candida utilis ATCC 26,387; assay: NAD+-dependent oxidation of secondary alcohols by cell extracts of yeasts; format: biochemical; details: for Conversion Rate, secondary alcohol to methylketone: cell extracts, grown on methanol, NAD+, gas chromatography
[6] = test system: secondary alcohol dehydrogenase (SADH); assay: Activity of purified secondary alcohol dehydrogenase (inhibition, substrate specificity, Km); format: biochemical, Pseudomonas sp. ATCC 21439
Experimental: Secondary alcohol dehydrogenase (SADH) from an obligate methanol utilizer, Pseudomonas sp. ATCC 21439 was purified as follows. […] 0.05 M sodium phosphate buffer, pH 7.0 with 0.5 mM dithiothretol (buffer A) and were disrupted sonically (5×1 min.). The crude extract was separated by centrifugation. The crude extract was heat-treated at 50° C. in a water bath for 10 minutes. The resulting precipitate was removed by centrifugation. To the supernatant solution, 25 ml of protamine sulfate solution (2% solution in 0.1 M Tris base) was added dropwise with continuous stirring. After standing for 30 minutes, the extract was centrifuged. The supernatant solution was fractionated with solid ammonium sulfate. The material precipitating between 30 and 60% saturation was collected and was dialized overnight against buffer A. The The dialized material was applied to a DEAE-cellulose column (3 cm by 35 cm) that had been equilibrated with buffer A. The secondary alcohol dehydrogenase activity was eluted in the void volume. This DEAE-cellulose eluate was concentrated by ammonium sulfate fractionation. Material precipitating between 30 and 50% ammonium sulfate saturation was collected by centrifugation and dialyzed overnight against A. This fraction was further washed and filtered through an Amicon unit with XM 50 membrane. The concentrated fraction (6 ml) inside the Amicon unit was applied to an Affi-Gel Blue column (0.8 cm×18 cm) which had been equilibrated with buffer A for affinity chromatography. The column was washed overnight with buffer A (0.18 ml./min.) and then was eluted with buffer A containing 5 mM NAD. Each 1 ml. fraction was collected.
The purified secondary alcohol dehydrogenase enzyme (SADH) may be used directly for converting C3 -C6 secondary alcohols to the corresponding methyl ketones by the procedures described above; however, a source of NAD^+ must be added to the reaction medium. One can determine the NAD-linked secondary alcohol dehydrogenase activity with a fluorescence spectrophotometer (Perkin Elmer, Model MPF 44A) by following the formation of reduced NAD (Ex 340 nm, Em 460 nm). The assay system (3 ml.) will typically contain: sodium phosphate buffer pH 7.0, 150 μmol; NAD 1.0 μmol; a given amount of enzyme preparation; and 20 μmol secondary alcohol. The reaction is started by the addition of secondary alcohol. One unit of SADH enzyme activity represents the reduction of one nmole NAD per minute.
The effect of metal-chelating agents and thioreagents on the activity of the purified SADH enzyme were studied. […] The possibility of ethanol or n-propanol as an inhibitor was studied.

[7] = test system: Kloeckera sp. Strain A2 (NRRL Y-11,420); assay: Oxidation of sec-alcohols to ketones by cell suspensions of yeasts; format: cell-based
[8] = test system: Candida utilis ATCC 26387; assay: as above; format: cell-based
Pichia sp. NRRL-Y-11328 = assay: as above; format: cell-based

Row | Structure (SMILES) | Conversion Rates, sec-alcohol to methyl ketone ([1]; cells grown on methanol) [μmoles/hr/mg protein] | Conversion Rates, sec-alcohol to methyl ketone ([1]; resting cells grown on methane) [μmoles/hr/mg protein] | Conversion Rates, sec-alcohol to methyl ketone ([2]; cells grown on methanol) [μmoles/hr/mg protein] | Conversion Rates, sec-alcohol to methyl ketone ([2]; resting cells grown on methane) [μmoles/hr/mg protein] | Conversion Rates, sec-alcohol to methyl ketone ([3]; cells grown on methanol) [μmoles/hr/mg protein] | Conversion Rates, sec-alcohol to methyl ketone ([3]; resting cells grown on methane) [μmoles/hr/mg protein] | Conversion Rates, sec-alcohol to methyl ketone ([4]; cells grown on methanol) [μmoles/hr/mg protein] | Conversion Rates, sec-alcohol to methyl ketone ([4]; resting cells grown on methane) [μmoles/hr/mg protein] | Conversion Rate, secondary alcohol to methylketone [5] [μmoles/hr/mg Protein] | substrate specificity of purified SADH (in words) [6] | Conversion Rate, sec-alcohol to ketone ([7]; growth substrate Ethanol) | Conversion Rate, sec-alcohol to ketone ([7]; growth substrate Methanol) | Conversion Rate, sec-alcohol to ketone ([7]; growth substrate Methylamine) | Conversion Rate, sec-alcohol to ketone ([7]; growth substrate Methylformate) | Conversion Rate, sec-alcohol to ketone ([7]; growth substrate Propylamine) | Conversion Rate, sec-alcohol to ketone ([8]; growth substrate Ethanol) | Conversion Rate, sec-alcohol to ketone ([8]; growth substrate Methanol) | Conversion Rate, sec-alcohol to ketone ([8]; growth substrate Methylamine) | Conversion Rate, sec-alcohol to ketone ([8]; growth substrate Methylformate) | Conversion Rate, sec-alcohol to ketone ([8]; growth substrate Propylamine) | further results
1 | CC(C)O [2-Propanol, 2-propanol] | 0.52 | 0.15 | 0.75 | 0.08 | 0.25 | 0.32 | 0.35 | 0.40 | 4.5 | highest | 4.5 μmoles/hr/mg of protein | 4.8 μmoles/hr/mg of protein | 4.0 μmoles/hr/mg of protein | 4.9 μmoles/hr/mg of protein | 4.0 μmoles/hr/mg of protein | 5.2 μmoles/hr/mg of protein | 6.2 μmoles/hr/mg of protein | 5.0 μmoles/hr/mg of protein | 5.6 μmoles/hr/mg of protein | 4.2 μmoles/hr/mg of protein | relative percent rate of oxidation ([6]; 2-butanol = 100%): 85%; Conversion Rate, sec-alcohol to ketone (Pichia sp. NRRL-Y-11328; growth substrate Ethanol): 4.5 μmoles/hr/mg of protein; Conversion Rate, sec-alcohol to ketone (Pichia sp. NRRL-Y-11328; growth substrate Methanol): 5.2 μmoles/hr/mg of protein; Conversion Rate, sec-alcohol to ketone (Pichia sp. NRRL-Y-11328; growth substrate Methylamine): 4.2 μmoles/hr/mg of protein; Conversion Rate, sec-alcohol to ketone (Pichia sp. NRRL-Y-11328; growth substrate Methylformate): 4.9 μmoles/hr/mg of protein; Conversion Rate, sec-alcohol to ketone (Pichia sp. NRRL-Y-11328; growth substrate Propylamine): 3.2 μmoles/hr/mg of protein
2 | CCC(C)O (stereo not shown) [2-Butanol, 2-butanol] | 1.5 | 0.84 | 0.70 | 0.60 | 1.0 | 1.1 | 0.40 | 0.39 | 4.92 | highest | 5.7 μmoles/hr/mg of protein | 5.9 μmoles/hr/mg of protein | 5.4 μmoles/hr/mg of protein | 5.9 μmoles/hr/mg of protein | 4.2 μmoles/hr/mg of protein | 5.2 μmoles/hr/mg of protein | 6.8 μmoles/hr/mg of protein | 5.0 μmoles/hr/mg of protein | 6.2 μmoles/hr/mg of protein | 4.2 μmoles/hr/mg of protein | specific activities ([5]; spectrophotometric, 2-butanol as substrate): 78 nmoles NAD^+ reduced per min. per mg. protein; Conversion Rate, sec-alcohol to ketone (Pichia sp. NRRL-Y-11328; growth substrate Ethanol): 6.2 μmoles/hr/mg of protein; Conversion Rate, sec-alcohol to ketone (Pichia sp. NRRL-Y-11328; growth substrate Methanol): 6.8 μmoles/hr/mg of protein; Conversion Rate, sec-alcohol to ketone (Pichia sp. NRRL-Y-11328; growth substrate Methylamine): 5.1 μmoles/hr/mg of protein; Conversion Rate, sec-alcohol to ketone (Pichia sp. NRRL-Y-11328; growth substrate Methylformate): 6.9 μmoles/hr/mg of protein; Conversion Rate, sec-alcohol to ketone (Pichia sp. NRRL-Y-11328; growth substrate Propylamine): 2.1 μmoles/hr/mg of protein
